Experimental data: paper PMC6689431 (Biochimica et biophysica acta. Biomembranes, 2019)

How the values were obtained:
[1] = Fluorescence intensity of TAMRA-labeled peptides at different pH / buffers; assay type: physicochemical; conditions: 0.2 µM peptide; for fluorescence intensity in Tris buffer pH 8: 50 mM Tris pH 8, λex 544/λem 590 nm, mean ± SD
[2] = Fluorescence intensity of TAMRA-labeled peptides with detergents; assay type: physicochemical; conditions: 0.2 µM peptide, 50 mM Tris pH 8 + 0.1% (w/v) SDS, no cells, λex 544/λem 590 nm

## ^*-GALFLGWLGAAGSTMGAWSQPKKKRKV-ANSRWPTSII [*MPG-iCAL36]
[1]
  decrease of fluorescence intensity, citric acid versus Tris buffer, both pH 8: 36%
  fluorescence intensity in Tris buffer pH 8: 68,132 ± 5,731
[2]
  increase of fluorescence intensity in Tris+SDS compared to Tris buffer alone: 7 ×

## ^*-GRKKRRQRRRPPQ-ANSRWPTSII [*Tat-iCAL36]
[1]
  fluorescence intensity in Tris buffer pH 8: 103,693 ± 2,848

## ^*-LLRLLRWWWRLLRLL-ANSRWPTSII [*WRAP5-iCAL36]
[2]
  increase of fluorescence intensity in Tris+SDS compared to Tris buffer alone: 15 ×

## ^*-RLWRLLWRLWRRLWRLLR-ANSRWPTSII [*C6M1-iCAL36]
[2]
  increase of fluorescence intensity in Tris+SDS compared to Tris buffer alone: 9 ×
